Assay results reported in patent publication US20110166206A1, “UBIQUILIN REGULATION OF PRESENILIN ENDOPROTEOLYSIS, AND SUPPRESSION OF POLYGLUTAMINE-INDUCED TOXICITY IN CELLS” (UNIVERSITY OF MARYLAND BIOTECHNOLOGY INSTITUTE, priority 2005, published 2011).

Columns and labels:
GFP-HttQ74-3 cell line = type: cell-based; details: 100 uM, 5 hours exposure
From the text: FIG. 11. […] The 28Q-2 and 74Q-3 were used in most of our studies. The asterisk corresponds to a non-specific band that is detected by the GFP antibody. • B. Representative fluorescent images of GFP-HttPolyQ(28)-2 and GFP-HttPolyQ(74)-3 stable cell lines. Note that GFP fluorescence is located in both the cytoplasm and the nucleus, but that compact foci are only seen in the GFP-HttPolyQ(74)-3 cells. • C. Cells expressing expanded polyglutamine proteins are more sensitive to H2O2. The GFP-HftPolyQ(28)-2 and GFP-HttPolyQ(74)-3 stable cell lines were exposed to 200 μM concentration of H2O2 and after 5 hr, the cells were stained with both Hoechest 33342 and PI. […] Percentages of cell death calculated by determining the ratio of PI-positively stained cells to that of Hoechst-stained cells. […] Cell death was quantified as described in D above. • H. Representative images showing that ubiquilin-1 overexpression protects GFP-HttPolyQ(74)-3 expressing cells against serum withdrawal-induced cell death, in a dose-dependent manner. […] Bottom panel: Quantification of the spot intensity determined in three independent experiments.
Cell death was monitored either through examination of the nuclear morphology observed after Hoechst 33342 (1 μg/ml) staining, or through detecting the membrane selective permeability following 3 μM of propidium iodide (PI) staining. […]

PS2 NTF [1] = assay: Cycloheximide time course of PS2 fragment production in PS2 inducible cells with or without UBQLN1 transfection; type: cell-based, human; details: PS2 inducible cell lysates, densitometry
Description: (A) Time course experiment using ponA-induced PS2 cell line cultures transfected with or without UBQLN1 expression plasmids were treated with […] cycloheximide for 0-6 hours. Equal amounts of protein lysate were separated by 8.5% SDS-PAGE and subsequently immunoblotted with anti-UBQLN antibody. Transfected cells reveal a 4-fold increase in UBQLN1 levels. Next, the protein lysates were immunoblotted using anti-PS2 NH,-terminal antibody to detect FL and NTF PS2 levels, as indicated. Note both FL PS2 turnover and NTF production levels in transfected versus untransfected cell lysates.
(B) Same experiment as (A) except FL PS expression was not induced using PonA.
(C) Graphs showing relative levels of PS2 polypeptides in PS2 inducible cell lysates after densitometric analysis of the immunoreactive bands shown in panels A and B. The levels were calculated by normalization of the signals relative to that in Lane 1. The Microsoft Excel program was used to produce a best-fit line for each graph. […] However, this is completely opposite of NTF levels. UBQLN not only decreases NTF levels at every time-point in the experiment, but it also slows the rate of NTF production, as determined by measuring the slope of each line.
HeLa and HEK293 cells were grown in DMEM supplemented with 10% FBS. PS1 and S2 inducible cell lines were generated by transfection of the pERV-expressing HEK293 cell line (Stratgene, IaIolla, Calif.) with FL human PS2 cDNA under the control of ponasteroneA (PonA)-inducible cassette in plasmid pEGSH (Stratagene). Stable integration of the pEGSH plasmid was achieved by selection for hygromycin resistance. PS expression was induced by adding PonA (final cont. 10 pM) to the medium. For proteasome inhibition studies, cultures were treated with 40 uM MG132 (Calbiochem, San Diego, Calif.) for time periods as indicated. […]
To this end, protein synthesis was inhibited using cyclohexamide (CHX) and PS fragment production was monitored over a six-hour time period in UBQLN transfected and untransfected lysates that were either induced or uninduced for PS expression. […]

Nicastrin = assay: UBQLN overexpression in PS inducible cells, Nicastrin immunoblot; type: cell-based; details: UBQLN overexpressed
From the text: (§1) (A) Examination of Nicastrin, Aph-1 and Pen-2 levels in PS1 cells lines that were either not induced (lanes 1 and 3) or induced with PonA (lanes 2 and 4) and either left untransfected (lanes 1 and 2) or transfected with UBQLN1 cDNA (lanes 3 and 4). Equivalent amounts of protein lysates were separated by 10% SDS-PAGE and immunoblotted with the appropriate antibodies. The filter was then reprobed an anti-actin to ensure equal loading. UBQLN overexpression decreases Pen-2 and Nicastrin levels.
(§2) Preparation of protein lysates, SDS-PAGE and immunoblotting of proteins were described previously. Primary antibodies used were rabbit anti-PS2 loop and rabbit anti-PS2 NH,-terminus, both raised to GST-PS2 fusion proteins; rabbit anti-ubiquilin [43] which reacts with UBQLN1 and UBQLN2 polypeptides; rat anti-PS1 NH2,-terminus (Chemicon International, Temecula, Calif.); rabbit anti-PS1 loop raised to GST-PS1 fusion proteins; goat anti-p27 and goat anti-actin (Santa Cruz Biotechnology, Santa Cruz, Calif.); mouse monoclonal anti-tubulin (Sigma-Aldrich, St. Louis, Mo.); rabbit anti-nicastrin (Abeam, Cambridge, Mass.), rabbit anti-Pen-2 (Zymed, San Francisco, Calif.); and rabbit anti-Aph-la (Covance, Berkeley, Calif.). […]

Pen-2 = assay: UBQLN overexpression in PS inducible cells, Pen-2 immunoblot; type: cell-based; details: induced lysates
From the text: as §1
(C) Densitometric analysis was used to quantify the extent of reduction. Each experiment was repeated more than three times.
as §2

PS2 NTF [2] = assay: Pulse-chase of PS2 NTF turnover with or without UBQLN overexpression; type: cell-based; details: 35 hour chase, with vs without UBQLN overexpression
Aph-1 = assay: UBQLN overexpression in PS inducible cells, Aph-1 immunoblot; type: cell-based; details: UBQLN overexpressed
From the text: as §1, §2

OO [H2O2]
cell death (GFP-HttQ74-3 cell line): approximately 30%

UBQLN: ubiquilin protein overexpressed from cDNA plasmids, isoform not specified at the place
FL PS2 levels (PS2 NTF [1]): increases FL PS2 levels dramatically
levels of mature Nicastrin (Nicastrin): decreased
reduction of Pen-2 levels (Pen-2): 2 fold
turnover of PS2 NTF (PS2 NTF [2]): no significant difference
Aph-1 levels (Aph-1): remain steady
